# Read-outs that look alike come from different tables or passages of the source. Marks after values point to notes of the source that are not given here.
# Experiments:
# [1] = tested on: insulin-resistant 3T3-L1 adipocytes; test: Adiponectin secretion from insulin-resistant 3T3-L1 adipocytes; assay type: cell-based, murine; settings: for Adiponectin/IL-6: ratio of Adiponectin Index to IL-6 Index, insulin-resistant 3T3-L1 adipocytes; for EC50: Mus musculus; for Maximum Adiponectin Secretion: estimated from the y-intercept of Hofstee plots; for dose at which maximal adiponectin secretion was observed: of four doses tested
# [2] = tested on: TNFα-treated 3T3-L1 adipocytes; test: Adiponectin secretion from TNFα-treated 3T3-L1 adipocytes; assay type: cell-based, murine
# Procedure: For two days, the cells were allowed grow to reach confluence. […] (3) 0.5 μM dexamethasone and (4) 10 μg/ml insulin (MDI medium). […] Adiponectin Assay—The adiponectin secreted into the medium was quantified using the Mouse Adiponectin Quantikine® Immunoassay kit with no modifications (R&D Systems, Minneapolis, Minn.). […] Statistical Calculations and Interpretation—All assays were preformed in duplicate. […] Differences among the doses and test agents were determined using the Student's t-test without correction for multiple comparisons; the nominal five percent probability of a type I error was selected.
# [3] = tested on: TNFα-treated 3T3-L1 adipocytes; test: IL-6 secretion from TNFα-treated 3T3-L1 adipocytes; assay type: cell-based, murine; settings: for IL-6 Index: D5 3T3-L1 adipocytes, indexed to TNFα control
# [4] = tested on: LPS-stimulated 3T3-L1 adipocytes; test: IL-6 secretion in LPS/3T3-L1 adipocytes; assay type: cell-based, murine; settings: 100 ng LPS/ml, D5 3T3-L1 adipocytes
# [5] = tested on: LPS-treated 3T3-L1 adipocytes; test: Adiponectin secretion in LPS/3T3-L1 adipocytes; assay type: cell-based, murine; settings: for Maximum adiponectin stimulation: 100 ng/ml LPS, D5 3T3-L1; for Concentration of maximum stimulation of adiponectin secretion: LPS/3T3-L1 adipocytes; for Emax: Mus musculus, 3T3-L1, at the concentration of maximum stimulation (c1), NS = not significantly different from the LPS control
# [6] = Collagen induced rheumatoid arthritis murine model; assay type: in vivo, mouse; settings: 10 mg/kg
# 3T3-L1 adipocytes = test: Lipogenesis (Oil Red O / BODIPY) in 3T3-L1 adipocytes; assay type: cell-based, murine; settings: 50 μg test material/ml
# Procedure: Prior to experiments, cells were cultured in DMEM containing 10% FBS-HI added 50 units penicillin/ml and 50 μg streptomycin/ml, and maintained in log phase prior to experimental setup. Cells were grown in a 5% CO2 humidified incubator at 37° C. Components of the pre-confluent medium included (1) 10% FBS/DMEM containing 4.5 g glucose/L; (2) 50 U/ml penicillin; and (3) 50 μg/ml streptomycin. Growth medium was made by adding 50 ml of heat inactivated FBS and 5 ml of penicillin/streptomycin to 500 ml DMEM. This medium was stored at 4° C. Before use, the medium was warmed to 37° C. in a water bath.
# 3T3-T1 cells were seeded at an initial density of 6×10^4 cells/cm^2 in 24-well plates. For two days, the cells were allowed grow to reach confluence. […]
# Oil Red O Staining—Triglyceride content of D6/D7-differentiated 3T3-L1 cells was estimated with Oil Red O according to the method of Kasturi and Joshi [Kasturi, R. and Joshi, V. C. […] The resulting stained oil droplets were extracted from the cells with isopropanol and quantified by spectrophotometric analysis at 540 nm (MEL312e BIO-KINETICS READER, Bio-Tek Instruments, Winooski, Vt.). […]
# [7] = Non-fasting serum glucose and insulin in db/db diabetic mice; assay type: in vivo, mouse; settings: three consecutive days
# Procedure: The Model—Male, C57BLKS/J m^+/m^+Lepr^db (db/db) mice were used to assess the potential of the test materials to reduce fasting serum glucose or insulin concentrations. This strain of mice is resistant to leptin by virtue of the absence of a functioning leptin receptor.
# Testing Procedure—Test substances were administered daily by gavage in 0.2% Tween-80. Serum was collected from the retroorbital sinus before the initial dose and ninety minutes after the third and final dose. Non-fasting serum glucose was determined enzymatically by the mutarotase/glucose oxidase method and serum insulin was determined by a mouse specific ELISA.
# The Model—Male, C57BLKS/J m+/m+ Leprdb (db/db) mice were used to assess the potential of the test materials to reduce fasting serum glucose or insulin concentrations. This strain of mice is resistant to leptin by virtue of the absence of a functioning leptin receptor.
# Testing Procedure—Test substances were administered daily by gavage in 0.2% Tween-80. Serum was collected from the retroorbital sinus before the initial dose and ninety minutes after the fifth and final dose. Non-fasting serum glucose was determined enzymatically by the mutarotase/glucose oxidase method and serum insulin was determined by a mouse specific ELISA.
# [8] = tested on: A549 pulmonary epithelial cells; test: Mite dust allergen stimulated PGE2 biosynthesis in A549 cells; assay type: cell-based, human; settings: 10 μg/ml, added 60 min before mite dust allergen 1000 ng/ml, 18 h
# Text: Mite dust allergen isolation—Dermatophagoides farinae is the American house dust mite. D. farinae were raised on a 1:1 ratio of Purina Laboratory Chow (Ralston Purina, Co, St. Louis, Mo.) and Fleischmann's granulated dry yeast (Standard Brands, Inc. New York, N.Y.) at room temperature and 75% humidity. Live mites were aspirated from the culture container as they migrated from the medium, killed by freezing, desiccated and stored at 0% humidity. The allergenic component of the mite dust was extracted with water at ambient temperature. Five-hundred mg of mite powder were added to 5 ml of water (1:10 w/v) in a 15 ml conical centrifuge tube (VWR, Rochester, N.Y.), shaken for one minute and allowed to stand overnight at ambient temperature. The next day, the aqueous phase was filtered using a 0.2 μm disposable syringe filter (Nalgene, Rochester, N.Y.). The filtrate was termed mite dust allergen and used to test for induction of PGE2 biosynthesis in A549 pulmonary epithelial cells.
# Cell culture and treatment—The human airway epithelial cell line, A549 (American Type Culture Collection, Bethesda, Md.) was cultured and treated as previously described in Example 6. Mite allergen was added to the culture medium to achieve a final concentration of 1000 ng/ml. Eighteen hours later, the media were sampled for PGE2 determination.
# [9] = tested on: NF-kBp65 nuclear translocation; test: Nuclear NF-kBp65 (TransAM) in TNFα-treated 3T3-L1 adipocytes; assay type: cell-based, murine; settings: for inhibition at […] / inhibition at 5 µg/mL: Mus musculus; for inhibition at […]: 2.5 μg/ml; for inhibition at 5 µg/mL / inhibition of nuclear translocation of NF-kBp65: 5.0 μg/ml
# Procedure: Cell Culture and Treatment—Following differentiation 3T3-L1 adipocytes were maintained in post-differentiation medium for an additional 40 days. […] Hops derivatives and the positive control pioglitazone were tested at concentrations of 2.5, and 5.0 μg/ml. Test materials were added 1 hour prior to and nuclear extracts were prepared three and 24 hours following treatment with TNFα.
# ELISA—3T3-L1 adipocytes were maintained in growth media for 40 days following differentiation. Nuclear NF-kBp65 was determined using the TransAM™ NF-kB kit from Active Motif (Carlsbad, Calif.) was used with no modifications. Jurkat nuclear extracts provided in the kit were derived from cells cultured in medium supplemented with 50 ng/ml TPA (phorbol, 12-myristate, 13 acetate) and 0.5 μM calcium ionophore A23187 for two hours at 37° C. immediately prior to harvesting.
# Protein assay—Nuclear protein was quantified using the Active Motif Fluorescent Protein Quantification Kit.
# [10] = tested on: RL 95-2 endometrial cancer cells; test: Cancer cell proliferation, CyQuant; assay type: cell-based; settings: Homo sapiens, RL95-2; 10 μg/ml, 72 hours; read-out: inhibition of cell proliferation relative to the DMSO solvent control
# Procedure: Methods—The inhibitory effects of test compounds of the present invention on cancer cell proliferation were examined in the RL 95-2 endometrial cancer cell model (an over expressor of AKT kinase), and in the HT-29 (constitutively expressing COX-2) and SW480 (constitutively expressing activated AKT kinase) colon cancer cell models. Briefly, the target cells were plated into 96 well tissue culture plates and allowed to grow until subconfluent. The cells were then treated for 72 hours with various amounts of the test compounds as described in Example 4 and relative cell proliferation determined by the CyQuant (Invitrogen, Carlsbad, Calif.) commercial fluorescence assay.
# [11] = Mus musculus, 3T3-L1, 1.0 μg/ml, with 10 ng TNFα/ml, read-out: % Inhibition of IL-6 secretion
# [12] = 3T3-L1, 3 h, three hours post TNFα
compound,measurement,setting,value
Cc1c(C)c2c(c(C)c1O)CCC(C)(COc1ccc(CC3SC(=O)NC3=O)cc1)O2 (centres unmarked) [Troglitazone],Adiponectin/IL-6,[1]; 5.0 μg/ml,1.12
same,EC50,"[1]; 3T3-L1, half maximal adiponectin secretion, estimated from the slope of Hofstee plots, insulin-resistant 3T3-L1 cells, read-out: Test Material at Half Maximal Secretion",0.085 µg/mL
same,EC50,"[1]; 3T3-L1, slope of modified Hofstee plot, read-out: concentration required for half maximal adiponectin secretion",0.085 µg/mL
same,Maximum Adiponectin Secretion,[1]; insulin-resistant 3T3-L1 cells,2.29 Fold relative to control
same,Maximum adiponectin secretion estimated from the y-intercept,[1]; modified Hofstee plot,2.29 fold
same,Concentration of maximum adiponectin secretion,[2]; 10 ng TNFα/ml,0.625 µg/mL
same,maximum increase of adiponectin secretion over the TNFα control,[2]; 10 ng TNFα/ml,51%
same,inhibition at 1 µg/mL,"[3]; Mus musculus, 3T3-L1, 1 μg/ml, 10 ng TNFα/ml, read-out: inhibition of IL-6 secretion relative to the controls",34%
same,inhibition at 1 µg/mL,[3]; [11],34%
same,Concentration providing the maximum inhibition of IL-6 secretion,[4],10.0 µg/mL
same,Maximum adiponectin stimulation,[5],15%
same,Concentration of maximum stimulation of adiponectin secretion,[5],0.625 µg/mL
same,Emax,[5],15%
C[C@]12C=CC(=O)C=C1CC[C@@H]1[C@@H]2[C@@H](O)C[C@@]2(C)[C@H]1CC[C@]2(O)C(=O)CO [prednisolone],days with significant reduction of arthritic index,[6],30 to 42 days
"CN(C)C(=N)N=C(N)N [metformin, Metformin]",lipogenic index (observed),3T3-L1 adipocytes,0.79
same,IL-6 Index,"[3]; 1.0 μg/ml, with 10 ng TNFα/ml",0.91
same,IL-6 Index,"[3]; 5.0 μg/ml, with 10 ng TNFα/ml",0.96
same,IL-6 Index,"[3]; 10 μg/ml, with 10 ng TNFα/ml",0.78
same,IL-6 Index,"[3]; 50 μg/ml, with 10 ng TNFα/ml",0.78
same,inhibition at 1 µg/mL,[3]; [11],9%
same,inhibition at 5 µg/mL,"[3]; Mus musculus, 3T3-L1, 5.0 μg/ml, with 10 ng TNFα/ml",4%
same,inhibition at 10 µg/mL,"[3]; Mus musculus, 3T3-L1, 10 μg/ml, with 10 ng TNFα/ml",22%
same,inhibition at 50 µg/mL,"[3]; Mus musculus, 3T3-L1, 50 μg/ml, with 10 ng TNFα/ml",22%
same,reduction in serum insulin,[7],17%
CC(C)CCC1=C(O)C(C(=O)C(C)C)=C(O)C(CCC(C)C)(CCC(C)C)C1=O [Hexahydrocolupulone (HHCL)],Adiponectin/IL-6,[1]; 50.0 μg/ml,0.60#
Beta acids,Percent PGE2 Inhibition,[8],83%
CC(=O)Oc1ccccc1C(=O)O [Aspirin],Concentration providing the maximum inhibition of IL-6 secretion,[4],25.0 µg/mL
same,Maximum adiponectin stimulation,[5],failed to induce adiponectin secretion
same,Concentration of maximum stimulation of adiponectin secretion,[5],113 µg/mL
same,Emax,[5],< 7%
CC(C)Cc1ccc(C(C)C(=O)O)cc1 (centres unmarked) [ibuprofen],Concentration providing the maximum inhibition of IL-6 secretion,[4],0.625 µg/mL
same,Maximum adiponectin stimulation,[5],22%
same,Concentration of maximum stimulation of adiponectin secretion,[5],0.625 µg/mL
same,Emax,[5],22%
"CC(C)CCC1=C(O)C(C(=O)C(C)C)=C(O)C(CCC(C)C)(CCC(C)C)C1=O [hexahydro colupulone, hexahydrocolupulone]",Maximum Adiponectin Secretion,[1]; insulin-resistant 3T3-L1 cells,1.83 Fold relative to control
same,dose at which maximal adiponectin secretion was observed,[1],12.5 µg/mL
same,concentration required for half maximal adiponectin secretion,[1]; slope of modified Hofstee plot,3.2 µg/mL
O=C(O)c1ccccc1O [salicylic acid],Concentration providing the maximum inhibition of IL-6 secretion,[4],50.0 µg/mL
same,Maximum adiponectin stimulation,[5],failed to induce adiponectin secretion
same,Concentration of maximum stimulation of adiponectin secretion,[5],173 µg/mL
same,Emax,[5],< 7%
"COc1ccc2c(c1)c(CC(=O)O)c(C)n2C(=O)c1ccc(Cl)cc1 [Indomethacin, indomethacin]",Maximum adiponectin stimulation,[5],9%
COc1cc(O)c(CC=C(C)C)c(O)c1C(=O)/C=C/c1ccc(O)cc1 [xanthohumol],dose at which maximal adiponectin secretion was observed,[1],1.25 µg/mL
same,inhibition at […],[9]; [12],6.9%
same,inhibition at 5 µg/mL,[9]; [12],15.6%
same,inhibition at […],"[9]; 3T3-L1, 24 hours post TNFα",8%
same,inhibition at 5 µg/mL,"[9]; 3T3-L1, 24 hours post TNFα",13.4%
same,inhibition at 10 µg/mL,[10],> 50%
CCc1ccc(CCOc2ccc(CC3SC(=O)NC3=O)cc2)nc1 (centres unmarked) [Pioglitazone],Concentration of maximum adiponectin secretion,[2]; 10 ng TNFα/ml,1.25 µg/mL
same,maximum increase of adiponectin secretion over the TNFα control,[2]; 10 ng TNFα/ml,80%
same,Adiponectin Index Observed,"[2]; 1.0 μg/ml, TNFα/3T3-L1 model, indexed to TNFα control (Table 26)",1.80
same,Concentration of maximum adiponectin secretion,"[2]; Table 16, 10 ng TNFα/ml",1.25 µg/mL
same,Adiponectin Index,"[2]; Table 16, maximum over four doses, 10 ng TNFα/ml",1.47
same,Concentration providing the maximum inhibition of IL-6 secretion,[4],5.00 µg/mL
same,Maximum adiponectin stimulation,[5],12%
same,Concentration of maximum stimulation of adiponectin secretion,[5],1.25 µg/mL
same,Emax,[5],12%
same,inhibition of nuclear translocation of NF-kBp65,[9]; 24 hours post TNFα,did not inhibit
same,inhibition of nuclear translocation of NF-kBp65,[9]; three hours post TNFα,did not inhibit

# Source: patent publication US20080026088A1, “Reduced isoalpha acid based protein kinase modulation cancer treatment” (Metaproteomics, LLC, priority 2006, published 2008)
